In one assay the target is T1, rhGBA (Homo sapiens, UniProt P04062).
T1 construct: made in house; host or cells: insect-baculovirus expression vector system (BEVS)
T1 sequence (P04062 40-536): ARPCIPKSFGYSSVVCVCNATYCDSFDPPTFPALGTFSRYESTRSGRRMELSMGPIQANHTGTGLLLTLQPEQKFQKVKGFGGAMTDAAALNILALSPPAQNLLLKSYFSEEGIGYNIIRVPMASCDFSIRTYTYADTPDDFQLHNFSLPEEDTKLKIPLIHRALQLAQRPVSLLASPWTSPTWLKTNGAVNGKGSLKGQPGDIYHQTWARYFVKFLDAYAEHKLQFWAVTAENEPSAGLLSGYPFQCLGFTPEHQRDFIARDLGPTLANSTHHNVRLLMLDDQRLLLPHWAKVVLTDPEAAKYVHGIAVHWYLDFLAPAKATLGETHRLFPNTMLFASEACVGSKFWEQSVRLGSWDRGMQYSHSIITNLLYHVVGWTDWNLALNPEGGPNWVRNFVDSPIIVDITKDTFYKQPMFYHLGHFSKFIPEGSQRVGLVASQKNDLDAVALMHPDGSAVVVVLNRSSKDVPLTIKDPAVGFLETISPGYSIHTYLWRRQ
Description: Time-dependent labelling of rhGBA with galacto-ABP 7 and gluco-ABP 8 (SDS-PAGE, Cy5 fluorescence). The class given is biochemical. To be noted: rhGBA 700 nM, ABP 150 nM. The procedure:
To rapidly investigate for cross‐reactivity with galacto‐configured cyclophellitol aziridines, time‐dependent labelling assays of rhGBA with galacto‐configured Cy5‐tagged aziridine ABP 7 were performed (Figure 3).
Figure 3 Time dependent labelling of rhGBA (700 nM) by Cy5‐tagged galacto‐ABP 7 (150 nM) after 2, 5, 10, 30 and 60 mins showing that labelling reaches saturation at 30 mins. In comparison, labelling by Cy5‐tagged gluco‐ABP 8 (150 nM) reaches saturation in 2mins. […] ABP labelled rhGBA (60 kDa) visualized by Cy5 fluorescent readout.
rhGBA produced in BEVS[58] was prepared at 700 nM in 150 mM McIlvaine buffer pH 5.2 (containing 0.1 % (v/v) Triton X‐100 and 0.2 % (w/v) sodium taurocholate) and ABP 7 or ABP 8 were added to 150 nM. The reactions were incubated at 37 °C and aliquots were taken at 2, 5, 10, 30 and 60 mins. The aliquots were immediately denatured with Laemmli (x3) sample buffer by heating at 95 °C for 5 minutes. The samples were resolved by electrophoresis in 10 % SDS‐PAGE gels, running at 200 V for ∼50 minutes. Wet slab gels were scanned on fluorescence using an AmershamTyphoon 5 Imager (GE Healthcare) with λEX 635 nm; λEM >665 nm.

The test system of the next assay is GBA. To be noted: read-out: apparent IC50 for GBA; cited from earlier work.

In general, IC50 refers to the point on the concentration scale where inhibition reaches its midpoint.

Consider `C[N+]1=C(C=CC=CC=C2N(CCCCCC(=O)NCc3ccc(C4=C5C(C=NN4)C4CC(C(=O)NCCCCCCN6C7C(O)C(O)C(O)C(CO)C76)C5C4)cc3)c3ccccc3C2(C)C)C(C)(C)c2ccccc21` (stereo not shown) [ABP 7], for which the “time to saturation of rhGBA labelling (Figure 3 legend)” value at rhGBA stood at 30 min. Further, on rhGBA (pH 5.2, 37 °C), the “time to saturation of rhGBA labelling” value is not above 30 min and the “time within which rhGBA is labelled” value is not above 2 min.
As to `OC[C@@H]1[C@@H](O)[C@H](O)[C@@H](O)[C@@H]2N[C@H]12` [compound 2, cyclophellitol aziridine], the concentration for half-maximal inhibition (IC50) in the assay on GBA was 500 nM.

The values are drawn from paper PMC9298352, “Design, Synthesis and Structural Analysis of Glucocerebrosidase Imaging Agents” (Chemistry (Weinheim an Der Bergstrasse, Germany), 2021).
